# Assay results published in publication PMC3606667 (Journal of natural products, 2013).
# Where two headings read alike, the source gives them in different places.
# Experiments:
# [1] = tested on: CCD-112CoN normal colon cell line; test: Cytotoxicity against CCD-112CoN normal colon cell line; assay type: cell-based; conditions: read-out: CCD112CoNl ED50
# NF-κB (p65) = NF-κB (p65) (Homo sapiens, UniProt Q04206); test: Enzyme-based ELISA NF-κB; assay type: biochemical; conditions: for NF-κB (p65) inhibitory activity (in words): ELISA assay; for times more potent than the control compound rocaglamide in NF-κB (p65) assay: relative to rocaglamide
# NF-κB (p65), sequence (Q04206 whole entry): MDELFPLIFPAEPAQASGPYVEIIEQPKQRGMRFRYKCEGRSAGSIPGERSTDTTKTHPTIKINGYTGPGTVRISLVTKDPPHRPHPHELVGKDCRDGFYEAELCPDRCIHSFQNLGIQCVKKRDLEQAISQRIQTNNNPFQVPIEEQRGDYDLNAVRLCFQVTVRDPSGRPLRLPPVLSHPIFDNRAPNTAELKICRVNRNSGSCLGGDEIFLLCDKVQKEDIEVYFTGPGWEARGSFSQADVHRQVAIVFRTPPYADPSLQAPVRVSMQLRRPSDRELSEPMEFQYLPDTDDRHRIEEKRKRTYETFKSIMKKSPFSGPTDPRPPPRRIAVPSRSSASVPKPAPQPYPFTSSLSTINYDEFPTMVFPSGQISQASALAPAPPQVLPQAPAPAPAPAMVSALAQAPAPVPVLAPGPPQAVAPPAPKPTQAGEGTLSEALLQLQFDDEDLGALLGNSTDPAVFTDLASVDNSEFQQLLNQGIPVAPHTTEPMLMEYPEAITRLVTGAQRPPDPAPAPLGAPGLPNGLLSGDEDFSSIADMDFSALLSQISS
# [2] = tested on: HT-29 human colon cancer cells; test: Cytotoxicity against HT-29 human colon cancer cells; assay type: cell-based; conditions: relative to perviridisin B (2), ED50 0.46 µM
# [3] = tested on: human monocytic leukemia cell line MONO-MAC-6; conditions: cited from earlier work
# [4] = tested on: human monocytic leukemia cell line MONO-MAC-1; conditions: cited from earlier work
# [5] = tested on: LNCaP human prostate cancer cells; conditions: cited from earlier work
# [6] = NF-κB (p65) ED50, ELISA assay, ED50 > 20 µM inactive
SMILES,CC50 [1] [µM],IC50 (NF-κB (p65); [6]) [µM],IC50 (NF-κB (p65)) [µM],other results
"COc1cc(OC)c2c(c1)O[C@@]1(c3ccc4c(c3)OCO4)[C@H](c3ccccc3)C[C@@H](O)[C@@]21OC [Compound 3, 8b-O-methyl-4′-demethoxy-3′,4′-methylenedioxyrocaglaol]",> 50,> 20,–,–
"COc1ccc([C@@]23Oc4cc(OC)cc(OC)c4[C@]2(O)[C@H](O)[C@H](C(=O)N(C)C)[C@H]3c2ccccc2)cc1 [rocaglamide, reference compound]",> 50,–,–,–
"COc1ccc([C@]23Oc4cc(OC)cc(OC)c4[C@](O)(C2O)[C@@H](c2ccccc2)[C@@H]3C(=O)NCCCCNC(=O)/C(C)=C/CO)cc1 (stereo partly shown) [Compound 1, perviridisin A]",–,> 20,–,times less active than its C-10 epimer perviridisin B (2) against HT-29 cells [2]: over 25 times
"COC(=O)[C@H]1[C@@H](O)[C@@]2(OC)c3c(OC)cc(OC)cc3O[C@@]2(c2ccc(OC)cc2)[C@@H]1c1ccccc1 [Compound 16, methyl 8b-O-methylrocaglate]",> 50,> 20,–,cytotoxicity result in MONO-MAC-6 [3]: negative result; cytotoxicity result in MONO-MAC-1 [4]: negative result
COc1cc2ccc(=O)oc2cc1O [scopoletin],–,> 20,–,–
CC1(C)[C@H](O)CC[C@]2(C)[C@H]3CC[C@@H]4[C@@H]([C@]5(C)CCC(=O)O5)CC[C@@]4(C)[C@]3(C)CC[C@@H]12 [cabraleahydroxylactone],–,> 20,–,–
CC1=CC(O)N(CCCCNC(=O)/C=C/c2ccccc2)C1=O (stereo not shown) [gigantamide A],–,–,> 20,–
"COC(=O)[C@H]1[C@@H](O)[C@@]2(O)c3c(OC)cc(OC)cc3O[C@@]2(c2ccc3c(c2)OCO3)[C@@H]1c1ccccc1 [Compound 12, methyl 4′-demethoxy-3′,4′-methylenedioxyrocaglate]",> 50,–,3.54,NF-κB (p65) inhibitory activity (in words) (NF-κB (p65)): significant NF-κB (p65) inhibitory activity
"COc1ccc([C@@]23Oc4cc(OC)cc(OC)c4[C@]2(O)[C@H](O)C[C@H]3c2ccccc2)cc1 [Compound 9, rocaglaol]",> 50,–,0.005,"NF-κB (p65) inhibitory activity (in words) (NF-κB (p65)): significant NF-κB (p65) inhibitory activity; times more potent than the control compound rocaglamide in NF-κB (p65) assay (NF-κB (p65)): more than 10 times; effect on LNCaP cells (cell cycle, apoptosis) [5]: cause G2/M-phase cell cycle arrest and to induce apoptosis"
"COC(=O)[C@H]1[C@@H](OC=O)[C@@]2(O)c3c(OC)cc(OC)cc3O[C@@]2(c2ccc3c(c2)OCO3)[C@@H]1c1ccccc1 [Compound 14, methyl 1-formyloxy-4′-demethoxy-3′,4′-methylenedioxyrocaglate]",> 50,–,–,–
"COC(=O)[C@H]1[C@@H](OC=O)[C@@]2(O)c3c(OC)cc(OC)cc3O[C@@]2(c2ccc(OC)cc2)[C@@H]1c1ccccc1 [Compound 15, methyl 1-formyloxyrocaglate]",> 50,> 20,–,–
CC(C)=C[C@H](O)[C@@H](O)[C@@H](CO)[C@H]1CC[C@@]2(C)[C@@H]3CC[C@H]4C(C)(C)[C@@H](O)CC[C@@]45C[C@@]35CC[C@]12C [argenteanol],–,> 20,–,–
"COc1ccc(-c2oc3cc(OC)cc(OC)c3c(=O)c2O)cc1 [5,7,4′-tri-O-methylkaempferol]",–,–,> 20,–
"COc1ccc([C@]23Oc4cc(OC)cc(OC)c4[C@](O)(C2O)[C@@H](c2ccccc2)[C@@H]3C(=O)NCCCCNC(=O)/C(C)=C/CO)cc1 (stereo partly shown) [Compound 2, perviridisin B]",> 50,–,–,NF-κB (p65) inhibitory activity (in words) (NF-κB (p65)): significant NF-κB (p65) inhibitory activity; IC50 (NF-κB (p65); NF-κB (p65) ED50): 2.4 µM
"COc1ccc([C@@]23Oc4cc(OC)cc(OC)c4[C@]2(O)[C@H](O)[C@H](C(N)=O)[C@H]3c2ccccc2)cc1 [Compound 13, didesmethylrocaglamide]",> 50,> 20,–,–
"CC(C)[C@H]1CC[C@]2(C)C(=O)CCC(C=O)=C[C@H]12 [Compound 17, 2-oxaisodauc-5-en-12-al]",–,–,0.005,NF-κB (p65) inhibitory activity (in words) (NF-κB (p65)): significant NF-κB (p65) inhibitory activity; times more potent than the control compound rocaglamide in NF-κB (p65) assay (NF-κB (p65)): more than 10 times
"COC(=O)[C@H]1[C@@H](O)[C@@]2(O)c3c(OC)cc(OC)cc3O[C@@]2(c2ccc(OC)cc2)[C@@H]1c1ccccc1 [Compound 10, methyl rocaglate]",> 50,> 20,–,–
"COc1cc(OC)c2c(c1)O[C@@]1(c3ccc4c(c3)OCO4)[C@H](c3ccccc3)C[C@@H](O)[C@@]21O [Compound 11, 4′-demethoxy-3′,4′-methylenedioxyrocaglaol]",> 50,–,0.33,NF-κB (p65) inhibitory activity (in words) (NF-κB (p65)): significant NF-κB (p65) inhibitory activity
"COC(=O)[C@H]1[C@@H](O)[C@@]2(OC)c3c(OC)cc(OC)cc3O[C@@]2(c2ccc3c(c2)OCO3)[C@@H]1c1ccccc1 [Compound 4, methyl 8b-O-methyl-4′-demethoxy-3′,4′-methylenedioxyrocaglate]",> 50,> 20,–,–
COc1ccc([C@@]23Oc4cc(OC)cc(OC)c4[C@]2(OC)[C@H](O)C[C@H]3c2ccccc2)cc1 [8b-O-methylrocaglaol],–,> 20,–,cytotoxicity result in MONO-MAC-6 [3]: negative result; cytotoxicity result in MONO-MAC-1 [4]: negative result
